Experimental data taken from US11376257B2, “Generation of muscle lineage cells and therapeutic uses thereof” (GENEA BIOCELLS USA (HOLDINGS), INC., priority 2016, dated 2022).
Entries after “also recorded” stand apart in the source; their conditions may differ. Where two headings read alike, the source gives them in different places.

Columns and labels:
[1] = system: stem cell-derived myoblasts; settings: for myotube morphology (visual) versus control cultures / production of myotubes with mature features (summary of FIGS. 10-18): 5 days; for production of myotubes with mature features (summary of FIGS. 10-18): different doses in Myotube Medium
Experimental: For screening, frozen satellite-like cells, prepared as described in Example 1, were thawed in a water bath at 37° C., resuspended in 3 mL of warm Myoblast Medium (Genea Biocells) and centrifuged at 400×g for 4 min. The supernatant was removed and the cell pellet was resuspended in 1 mL of medium for cell count. Cells were seeded at a density of 5,000 cells/cm^2 in collagen I-coated plastic flasks (Biocoat, BD Bioscience) and incubated at 5% CO2, 37° C. Every other day the culture medium was exchanged until cells reached a confluency of 80%, then cells were trypsinized, counted and seeded in collagen-coated 96-well plate (Biocoat) at density of 30,000 cells/cm^2 in Myoblast Medium using an automated liquid handling system (Fluent, Tecan Trading AG, Switzerland). Cells were incubated at 5% CO2, 37° C. and the medium was changed every other day until cells reached a confluence of 80%. The medium was exchanged for Myotube Medium (Genea Biocells) containing the test compounds. No further media changes were performed. In general, 3 to 6 concentrations were tested ranging from 3 μM to 1 nM; one plate per dilution was used. Media and DMSO control wells were placed randomly. No media changes were performed at this stage. After five days of myotube differentiation in the presence of compounds, cells were fixed with 10% formalin (Sigma) for 15 minutes at room temperature and washed once with phosphate-buffered saline (PBS). Next, cells were stained with an antibody specific for myosin heavy chain (Developmental Studies of Hybridoma Bank, University of Iowa, Iowa City; anti mouse A4.1519; dilution 1:1000) in PBS solution containing 5% bovine serum albumin (BSA, Sigma) and 0.3% Triton-X (Sigma) and incubated for 1 hour at room temperature. The cells were washed once with PBS and then incubated for 1 hour with a second antibody, Alexa Fluor 488-conjugated goat anti-mouse IgG (Invitrogen, 1:1000), and counterstained for nuclei with Hoechst 33342 (Molecular probes 1:5000) in a PBS solution containing 5% BSA and 0.3% Triton-X. Cells were washed with PBS prior microscopic analysis. Cells were imaged using an IN Cell Analyzer 6000 (GE-Healthcare) high content analysis system. Developer Toolbox v1.9.3 was utilized for image analysis to determine the number of nuclei, and the number of nuclei within MHC-positive myotubes. To evaluate the effect of compounds in either decrease or increase these measures untreated controls were set as the baseline.
Myoblasts were prepared or frozen myoblasts were thawed as described in Example 4. Once cultures reached confluency the medium was changed to Myotube Medium supplemented with 0.2, 0.5 or 1 μM CHIR-124 (Chk1 inhibitor). The cultures were left in an incubator at 37° C. and 5% CO2 for 5 days. […] Cells were fixed with 10% formalin (Sigma) for 15 minutes at room temperature and washed once with phosphate-buffered saline (PBS). Next, cells were stained for with antibodies specific for myosin heavy chain (Developmental Studies of Hybridoma Bank, University of Iowa, Iowa City; anti mouse A4.1519; dilution 1:1000) and MyoG (Santa Cruz, anti-rabbit; dilution 1:500) in PBS solution containing 5% bovine serum albumin (BSA, Sigma) and 0.3% Triton-X (Sigma) and incubated for 1 hour at room temperature. The cells were washed once with PBS and then incubated for 1 hour with a second antibody, Alexa Fluor 488-conjugated goat anti-mouse IgG and Alexa Fluor 647-conjugated anti-rabbit (both Invitrogen, 1:1000), and counterstained for nuclei with Hoechst 33342 (Molecular probes 1:5000) in a PBS solution containing 5% BSA and 0.3% Triton-X. Cells were washed with PBS prior to microscopic analysis. Cells were imaged using an IN Cell Analyzer 6000 (GE-Healthcare) high content analysis system.

[2] = system: myoblasts from non-affected and genetic disease-affected hESC cell lines; test: Myotube formation in disease-affected and non-affected hESC-derived myoblasts with or without CHIR-124; format: cell-based, human; settings: 0.5 μM CHIR-124, three days in Myotube Medium, all cell lines (unaffected, Huntington's, DM1, DM2, SMA, FSH, DMD)
Experimental: Myoblasts prepared via the method of Example 4 from two non-affected hESC cell lines (Genea002 and Genes019) and six verified genetic disease-affected cell lines (Genea020, Genea066, Gen103, Gen158, Gen049 and Gen159, described in Table 6 below) were thawed in Genea Biocells Myoblast Medium in 96-well microtiter plates at 3.0×10^4 cells/cm2 and incubated at 10% CO2, 37° C. Genea020 was derived from an embryo affected with Huntington's disease (48CAG repeat expansion in the Huntingtin gene). Genea066 was derived from an embryo affected with Myotonic Dystrophy type II. Genea103 was derived from an embryo affected with Spinal Muscular Atrophy. Genea158 was derived from an embryo affected with Myotonic Dystrophy type I. Genea049 was derived from an embryo affected with FSH Muscular Dystrophy. Genea159 was derived from an embryo affected with Duchenne muscular dystrophy. All hESC cell lines were derived according to approved ethical protocols from donated embryos. Once cells (myoblasts) were confluent (approximately on day 3) media was changed for Genea Biocells Myotube Medium, either alone or with 0.5 μM CHIR-124 (CHIR). […] Images were analyzed with IN Cell Developer Toolbox software (GE Healthcare). […] The ratio between area of MHC and nuclei (um2) was calculated by measuring the area per field divided by the number of nuclei within that field.

[3] = system: myosin heavy chains (MHC) in Genea015 myoblast-derived myotubes; test: Western blot analysis of myosin heavy chain types in myotubes; format: cell-based, human
Experimental: Genea015 (a disease-unaffected hESC cell line) myoblasts prepared by the method of Example 4 were thawed and seeded at 30,000 cells/cm^2 in Genea Biocells Myoblast Medium and incubated at 37° C., 5% CO2 until confluent (approximately 2 days). Then media was changed for Genea Biocells Myotube Medium either alone or with […] CHIR-124. Cell lysates for protein analysis were collected 5 days after treatment with CHIR-124 and quantified by BCA assay (ThermoFisher). Western blotting (Wes, Protein Simple) was performed to analyze the expression of myosin heavy chains (MHC) that are expressed during development and maturation of myotubes (total MHC, or total myosin heavy chain; eMHC, or embryonic myosin heavy chain; fMHC, or foetal myosin heavy chain; pMHC, or perinatal myosin heavy chain; and fast MHC, or fast myosin heavy chain, the most mature MHC found in myotubes). MHC expression was normalized to Vinculin for quantification.

[4] = system: Duchenne Muscular Dystrophy (DMD); test: Treatment of a Duchenne Muscular Dystrophy patient with a checkpoint inhibitor; format: in vivo, human; settings: child with DMD
Experimental: A child diagnosed with Duchenne Muscular Dystrophy (DMD) is seen in a clinic for weakness in their calves and thighs.
A child diagnosed with Duchenne Muscular Dystrophy (DMD) is seen in a clinic for weakness in their calves and thighs. To treat the muscle weakness, the patient is administered 100 mg once daily of CHIR-124 or 50-75 mg twice daily of CHIR-124 for two months. At the initial appointment, skin fibroblasts are obtained from the patient. The fibroblasts are subsequently used to produce induced pluripotent stem cells (iPSCs), which are then genetically modified to remove a mutation associated with DMD. The iPSCs are then differentiated into satellite cells in vitro; and the satellite cells, in turn, are differentiated into myoblasts in vitro. The differentiated myoblasts are then administered in […] doses to the patient's thighs and calves once a week during the two month period.

[5] = 0.5 μM CHIR-124, 5 days, Genea015

**Q.** Which results are given for `COc1ccncc1C(=O)NC(=O)Nc1ccc(-c2ccccc2)c(C(F)(F)F)c1` [TC-G 1006]?
**A.** myotube morphology (visual) versus control cultures ([1]; 0.1, 0.3 or 1 M): formed longer and thicker myotubes than control cultures; production of myotubes with mature features (summary of FIGS. 10-18) [1]: produce myotubes with mature features

**Q.** With `CNC(=O)c1cc(Oc2ccc(NC(=O)Nc3ccc(Cl)c(C(F)(F)F)c3)cc2)ccn1` [sorafenib] as the molecule, how does the “myotube morphology (visual) versus control cultures” value ([1]; 0.1, 0.3 or 1 μM) read?
**A.** formed more and longer and thicker myotubes than control cultures

**Q.** And the “production of myotubes with mature features (summary of FIGS. 10-18)” value (“production of myotubes” below) [1]?
**A.** produce myotubes with mature features

**Q.** How did the “myotube morphology (visual) versus control cultures” value ([1]; 0.1, 03 or 1 μM pilocarpine) turn out when `CC[C@@H]1C(=O)OC[C@@H]1Cc1cncn1C` [pilocarpine] was run?
**A.** formed longer and thicker myotubes than control cultures

**Q.** What about the “production of myotubes” value [1] of the same molecule?
**A.** produce myotubes with mature features

**Q.** What does the source list for `CN1[C@@H]2CC[C@H]1C[C@@H](OC(=O)C(CO)c1ccccc1)C2` (some centres unmarked) [atropine]?
**A.** myotube morphology (visual) versus control cultures ([1]; 0.2, 0.5 or 1 μM atropine): formed longer and thicker myotubes than control cultures; number of myotubes observed ([1]; cultures incubated with atropine): overall fewer myotubes were observed; production of myotubes with mature features (summary of FIGS. 10-18) [1]: produce myotubes with mature features

**Q.** Which results are given for `CO[C@H]1C[C@@H]2CC[C@@H](C)[C@@](O)(O2)C(=O)C(=O)N2CCCC[C@H]2C(=O)O[C@H]([C@H](C)C[C@@H]2CC[C@@H](O)[C@H](OC)C2)CC(=O)[C@H](C)/C=C(\C)[C@@H](O)[C@@H](OC)C(=O)[C@H](C)C[C@H](C)/C=C/C=C/C=C/1C` [rapamycin]?
**A.** myotube morphology (visual) versus control cultures ([1]; 0.1, 0.3 or 1 μM): formed more and longer and thicker myotubes than control cultures; production of myotubes with mature features (summary of FIGS. 10-18) [1]: produce myotubes with mature features

**Q.** With talazoparib as the molecule, how does the “myotube morphology (visual) versus control cultures” value ([1]; 0.1, 0.3 or 1 μM Talazoparib) read?
**A.** formed more and longer myotubes than control cultures

**Q.** What about the “production of myotubes” value [1] of the same molecule?
**A.** produce myotubes with mature features

**Q.** `Cn1cnc2c(F)c(Nc3ccc(Br)cc3F)c(C(=O)NOCCO)cc21` [MEK162, binimetinib] was tested. Which “myotube morphology (visual) versus control cultures” value ([1]; 0.1, 0.3 or 1 μM) did it give?
**A.** formed more and longer and thicker myotubes than control cultures

**Q.** What about the “production of myotubes” value [1] of the same molecule?
**A.** produce myotubes with mature features

**Q.** Which “myotube morphology (visual)” value ([1]; 0.2 μM, 0.5 μM, or 1 μM CHIR-124, 5 days) does the source give for `O=c1[nH]c2ccc(Cl)cc2c(NC2CN3CCC2CC3)c1-c1nc2ccccc2[nH]1` (centres unmarked) [CHIR-124] here?
**A.** formed thick, large myotubes

**Q.** What about the “number of myotubes observed” value ([1]; 1 μM CHIR-124, 5 days) of the same molecule?
**A.** overall fewer myotubes were observed

**Q.** What about the “larger average myotube diameter compared to myotubes formed in the absence of CHIR-124” value ([1]; 0.2 or 0.5 μM CHIR-124, 5 days) of the same molecule?
**A.** > 80%

**Q.** What about the “average number of nuclei per myotube” value ([1]; 0.2 or 0.5 μM CHIR-124, 5 days, 2 without CHIR-124) of the same molecule?
**A.** about 4

**Q.** What about the “mean area of myotubes (FIG. 10D, lower panel)” value ([1]; CHIR-124, 5 days) of the same molecule?
**A.** Increases

**Q.** What about the “myotube area (FIG. 10C, lower panel)” value ([1]; CHIR-124, 5 days) of the same molecule?
**A.** Increases

**Q.** And the “number of cells with larger myotube area (FIG. 10D, upper panel)” value ([1]; CHIR-124, 5 days)?
**A.** Increases

**Q.** And the “number of cells with more than one nucleus (FIG. 10B, lower panel)” value ([1]; CHIR-124, 5 days)?
**A.** Increases

**Q.** What about the “production of myotubes” value [1] of the same molecule?
**A.** produce myotubes with mature features

**Q.** And the “nuclei contained in many myotubes” value ([1]; exposed to CHIR-124, untreated controls few cells exceeding 10-12 nuclei)?
**A.** more than 30

**Q.** What about the “myotube formation as MHC staining area normalized to cell number (nuclei)” value [2] of the same molecule?
**A.** improved myotube formation; also recorded: improvements in differentiation

**Q.** And the “myotube formation as MHC staining area normalized to cell number (nuclei)” value ([2]; listed as CHIR124)?
**A.** higher

**Q.** And the “expression of fast MHC (fast myosin heavy chain)” value [3, 5]?
**A.** increases in expression

**Q.** And the “expression of total MHC normalized to Vinculin” value [3, 5]?
**A.** increases expression

**Q.** What about the “expression of pMHC (perinatal myosin heavy chain)” value ([3]; 0.5 M CHIR-124, 5 days, Genea015) of the same molecule?
**A.** increases in expression

**Q.** What about the “expression of the most mature forms of MHC (FIG. 20)” value ([3]; in the presence of CHIR-124) of the same molecule?
**A.** increased expression

**Q.** And the “symptoms of muscle weakness” value ([4]; 100 mg once daily or 50-75 mg twice daily for two months)?
**A.** symptoms of muscle weakness improve

**Q.** And the muscle tone ([4]; CHIR-124 for two months combined with genetically modified iPSC-derived myoblasts once a week)?
**A.** improved muscle tone

**Q.** For `CC(C)c1noc(N2CCC(COc3ccc(-c4ccc(S(C)(=O)=O)cc4)nc3)CC2)n1` [GSK1292263], which “myotube morphology (visual) versus control cultures” value ([1]; 0.1, 0.3 or 1 M) is on record?
**A.** formed longer and thicker myotubes than control cultures

**Q.** What about the “production of myotubes” value [1] of the same molecule?
**A.** produce myotubes with mature features
